Results as given in PMC3199943, “Screening the MayBridge Rule of 3 Fragment Library for Compounds That Interact with the Trypanosoma brucei myo-Inositol-3-Phosphate Synthase and/or Show Trypanocidal Activity” (Molecular Biology International, 2011).
Read-outs that look alike come from different tables or passages of the source.

How the values were obtained:
TbINO1 = target: T1, TbINO1 (Trypanosoma brucei brucei, UniProt Q5QQ46); assay: biochemical; type: binding
T1 sequence (Q5QQ46 1-528): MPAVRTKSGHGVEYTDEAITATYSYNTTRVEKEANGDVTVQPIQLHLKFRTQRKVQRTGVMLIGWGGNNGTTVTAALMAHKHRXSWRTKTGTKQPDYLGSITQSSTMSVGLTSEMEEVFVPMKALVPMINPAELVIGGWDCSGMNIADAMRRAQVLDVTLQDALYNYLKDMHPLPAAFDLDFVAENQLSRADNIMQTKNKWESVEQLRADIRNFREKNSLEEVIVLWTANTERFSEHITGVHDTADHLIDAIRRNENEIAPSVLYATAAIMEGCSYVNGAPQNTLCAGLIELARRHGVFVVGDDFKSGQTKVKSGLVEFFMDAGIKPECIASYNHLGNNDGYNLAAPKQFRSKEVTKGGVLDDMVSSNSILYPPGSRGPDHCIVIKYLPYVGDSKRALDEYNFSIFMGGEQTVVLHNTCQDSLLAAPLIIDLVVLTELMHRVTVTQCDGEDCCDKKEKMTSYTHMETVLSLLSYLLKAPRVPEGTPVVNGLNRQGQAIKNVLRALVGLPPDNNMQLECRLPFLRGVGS

HeLa cells = assay: cells; settings: for viability at 500 µM: 65 h; for HeLa Cells Alamar Blue: Supplementary Table 1
Outline: (§1)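 Alamar Blue read-out after a 5 h dye incubation that followed ~65 h compound exposure. Cells: HeLa or A549, 2 × 10^4/well, DMEM + 10% FCS + 2 mM L-Glutamine.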

A549 cells = assay: Cytotoxicity against A549 cells, Alamar Blue; type: cell-based; settings: Supplementary Table 1, compound 0.5 mM, percentage of controls (n=1); for viability at 500 µM: Homo sapiens, A549, 65 h
Outline: as §1

[1] = read-out: Tb Ino1 Tm Shift [˚C]
[2] = Homo sapiens, HeLa, read-out: HeLa Cells Alamar Blue
[3] = Supplementary Table 1, compound 1mM, mean ± SD from Boltzman curve fitting, read-out: Tb Ino1 Tm Shift [˚C]
[4] = Supplementary Table 1, compound 1mM, mean ± SD from Boltzman curve fitting
[5] = compound 0.5 mM, percentage of controls, mean ± SD (n=3) or SE (n=2)
[6] = Homo sapiens, HeLa, read-out: HeLa Cells Alamar Blue (% survival)

Structure (SMILES) | ΔTm at 1000 µM (TbINO1; [1]) [°C] | viability at 500 µM (HeLa cells; [2]) [%] | viability at 500 µM (A549 cells) [%] | further results
O=C(O)Cc1cc(F)cc(F)c1 [compound 359, 2‐(3,5‐difluorophenyl)acetic acid] | 0.13 ± 0.06 | 108 ± 13.6 | 128 | 
NC(=S)C1=Cc2ccccc2OC1 [compound 558, 2H‐chromene‐3‐carbothioamide] | 0.05 ± 0.09 | 80.8 ± 8.8 | 98.1 | 
OCc1ccnc(N2CCCCC2)c1 [compound 568, (2‐piperidinopyrid‐4‐yl)methanol] | 0.03 ± 0.07 | 94.5 ± 18.7 | 103 | 
N#Cc1ccc(F)cc1 [compound 51, 4‐fluorobenzonitrile] |  | 90.9 ± 7.5 | 64.2 | ΔTm at 1000 µM (TbINO1; [3]): 0.1 ± 0.08 °C
OCC1CNc2ccccc2O1 (stereo not drawn) [compound 307, 3,4‐dihydro‐2H‐1,4‐benzoxazin‐2‐ylmethanol] |  |  |  | Tb Ino1 Tm Shift [˚C] (TbINO1; [4]): 0.56 ± 0.06 °C; HeLa Cells Alamar Blue (HeLa cells; [5]): 81 ± 17.2 percentage of controls; A549 Cells Alamar Blue (A549 cells): 70.8 percentage of controls
Cn1nccc1N [compound 7, 1‐methyl‐1H‐pyrazol‐5‐ylamine] | 0.12 ± 0.06 | 106 ± 6.2 | 124 | 
N#Cc1c(N)cccc1Cl [compound 210, 2‐amino‐6‐chlorobenzonitrile] | 0.15 ± 0.08 | 91.5 ± 10.8 | 89.2 | 
O=C(O)C1NCCS1 (stereo not drawn) [compound 103, 1,3-thiazolane-2-carboxylic acid] |  | 103 ± 6.4 | 107 | ΔTm at 1000 µM (TbINO1; read-out: TbIno1 Tm shift [°C]): 2.63 ± 0.08 °C; viability at 500 µM (HeLa cells; [6]): 103 ± 6.4%
NC(=S)c1cccc2c1OCCO2 [compound 592, 2,3‐dihydro‐1,4‐benzodioxine‐5‐carbothioamide] |  |  |  | Tb Ino1 Tm Shift [˚C] (TbINO1; [4]): 0.18 ± 0.07 °C; HeLa Cells Alamar Blue (HeLa cells; [5]): 54.3 ± 15.7 percentage of controls; A549 Cells Alamar Blue (A549 cells): 39.8 percentage of controls
Nc1ccccc1CN1CCOCC1 [compound 570, 2‐(morpholin‐4‐ylmethyl)aniline] | 0.35 ± 0.05 | 93.2 ± 17.1 | 104 | 
OCc1ccc2[nH]cnc2c1 [compound 170, 1H‐benzimidazol‐5‐ylmethanol] | 0.15 ± 0.07 | 98.3 ± 4.2 | 92 | 
Nc1ccccc1OC(F)(F)F [compound 418, 2‐(trifluoromethoxy)aniline] | 0.14 ± 0.07 | 99.1 ± 14.1 | 97.9 | 
COc1cccc(N)c1 [compound 61, 3‐methoxyaniline] |  | 48.7 ± 8.9 | 69.2 | ΔTm at 1000 µM (TbINO1; [3]): 0.19 ± 0.07 °C
COC(=O)c1cccc(CN)c1.Cl [compound 632, 3‐Aminomethylbenzoic acid methyl ester hydrochloride] |  |  |  | Tb Ino1 Tm Shift [˚C] (TbINO1; [4]): 0.22 ± 0.07 °C; HeLa Cells Alamar Blue (HeLa cells; [5]): 44.8 ± 10.2 percentage of controls; A549 Cells Alamar Blue (A549 cells): 107.3 percentage of controls
CCCc1ccc(C(C)=O)cc1 [compound 288, 1‐(4‐propylphenyl)ethan‐1‐one] | 0.22 ± 0.08 | 72.2 ± 17.1 | 90.6 | 
Cc1cc2c(N)cccc2nn1 [compound 261, 3-methylcinnolin-5-amine] |  | 62.5 ± 14.7 | 74.1 | ΔTm at 1000 µM (TbINO1; read-out: TbIno1 Tm shift [°C]): 1.83 ± 0.11 °C; viability at 500 µM (HeLa cells; [6]): 62.5 ± 14.7%; CC50 (HeLa cells; Homo sapiens, HeLa, read-out: HeLa ED50): 726 ± 64 µM
CC(=O)c1cc(Cl)sc1Cl [compound 590, 1‐(2,5‐dichloro‐3‐thienyl)ethan‐1‐one] | 0.3 ± 0.07 | 97.7 ± 13.9 | 130 | 
OCc1ccc2nccn2c1 [compound 171, imidazo[1,2‐a]pyridin‐6‐ylmethanol] | 0.84 ± 0.09 | 94.1 ± 15.6 | 99.4 | 

Structure (SMILES) | ΔTm at 1000 µM (TbINO1; [1]) [°C] | viability at 500 µM (HeLa cells; [2]) [%] | viability at 500 µM (A549 cells) [%] | further results
CC1(C)C=Cc2cc(C#N)ccc2O1 [compound 487, 2,2‐dimethyl‐2H‐chromene‐6‐carbonitrile] | 0 | 112 ± 14.6 | 108 | 
ON=C1CCCCCN1 [compound 87, azepan‐2‐one oxime] | 0.52 ± 0.06 | 92.3 ± 17.4 | 115 | 
Nc1ccc2ncsc2c1 [compound 191, 1,3‐benzothiazol‐6‐amine] | 0.44 ± 0.11 | 76.3 ± 15.1 | 38 | 
COc1ncccc1N [compound 65, 2‐methoxypyridin‐3‐amine] | 1.46 ± 0.07 | 66.6 ± 18.7 | 75.4 | 
c1cc(-c2ccncc2)ccn1 [compound 235, 4,4'‐dipyridyl] |  | 63.7 ± 17.4 | 54.8 | ΔTm at 1000 µM (TbINO1; [3]): 0.2 ± 0.07 °C
Nc1ccc2c(c1)C(=O)OC2 [compound 175, 6‐amino‐1,3‐dihydroisobenzofuran‐1‐one] | 0.04 ± 0.08 | 106 ± 17 | 79.5 | 
CNCc1ccccc1-c1cccs1 [compound 646, N‐methyl‐N‐(2‐thien‐2‐ylbenzyl)amine] |  |  | 66.9 | ΔTm at 1000 µM (TbINO1; [3]): 0.1 ± 0.05 °C; viability at 500 µM (HeLa cells; Homo sapiens, HeLa, read-out: HeLa Cells Alamar Blue, Supplementary Table 1, compound 0.5 mM, percentage of controls, mean ± SD (n=3) or SE (n=2)): 36.5 ± 9.5%
Cc1nn(C)c2sc(CO)cc12 [compound 467, (1,3‐dimethyl‐1H‐thieno[2,3‐c]pyrazol‐5‐yl)methanol] |  |  |  | Tb Ino1 Tm Shift [˚C] (TbINO1; [4]): 0.35 ± 0.09 °C; HeLa Cells Alamar Blue (HeLa cells; [5]): 67.5 ± 16.4 percentage of controls; A549 Cells Alamar Blue (A549 cells): 70.7 percentage of controls
CN1CCN(C)C1=O [compound 35, 1,3‐dimethylimidazolidin‐2‐one] |  | 101 ± 6.6 | 92.7 | ΔTm at 1000 µM (TbINO1; [3]): 0.04 ± 0.07 °C
CNCc1ccc2c(c1)OCO2 [compound 305, N‐(1,3‐benzodioxol‐5‐ylmethyl)‐N‐methylamine] |  |  |  | Tb Ino1 Tm Shift [˚C] (TbINO1; [4]): 1.12 ± 0.05 °C; HeLa Cells Alamar Blue (HeLa cells; [5]): 56.8 ± 29.4 percentage of controls; A549 Cells Alamar Blue (A549 cells): 58.3 percentage of controls
Nc1cccc(-c2cccs2)c1 [compound 403, 3‐(2‐thienyl)aniline] | 0.04 ± 0.04 | 49.1 ± 15.7 | 52.3 | 
Cc1cccc2c1NCCC2 [compound 166, 8‐methyl‐1,2,3,4‐tetrahydroquinoline] | 0.06 ± 0.07 | 95.5 ± 1.6 | 76 | 
NCc1ccc(N2CCCC2)cc1 [compound 414, [4‐(1‐pyrrolidinyl)phenyl]methanamine] | 0.14 ± 0.07 | 68 ± 13.7 | 96.8 | 
OCc1cccc(N2CCCC2)c1 [compound 428, (3‐pyrrolidin‐1‐ylphenyl)methanol] | 0.44 ± 0.07 | 12.6 ± 5.6 | 81.2 | 
Cl.NCc1ccc2c(c1)CCO2 [compound 496, 2,3‐dihydrobenzo[b]furan‐5‐ylmethylamine hydrochloride] |  |  |  | Tb Ino1 Tm Shift [˚C] (TbINO1; [4]): 0.06 ± 0.08 °C; HeLa Cells Alamar Blue (HeLa cells; [5]): 99.8 ± 15.5 percentage of controls; A549 Cells Alamar Blue (A549 cells): 96.7 percentage of controls
Cc1ccc(CN)cc1Cl [compound 233, 3‐chloro‐4‐methylbenzylamine] | 0.11 ± 0.08 | 91.7 ± 12.6 | 163 | 
O=C(O)[C@H]1CCCN1 [compound 37, D‐proline] | 0.41 ± 0.06 | 94.8 ± 10.1 | 78.6 | 
